Measured values taken from article PMC10423278, “Delivered complementation in planta (DCIP) enables measurement of peptide-mediated protein delivery efficiency in plants” (Communications Biology, 2023).
No end group written: not given here.

Tests used:
[1] = test system: DCIP-expressing leaves (intact); test: DCIP in attached, intact leaves incubated in situ; format: cell-based, Nicotiana benthamiana
Method: We next confirmed that DCIP is capable of detecting successful delivery in attached, intact leaves instead of leaf discs. DCIP-expressing leaves were thus infiltrated with 100 μM R9-GFP11 solutions and allowed to incubate in situ. During this time, the infiltrated liquid would dry, rendering the effective treatment concentration difficult to compare to the above leaf disc assays. We then assessed the amount of sfGFP complementation at 4 or 24 h post infiltration with 100 μM R9-GFP11 (Fig. 4a). […] We also tested whether or not 24 h-treated cells were still competent to R9-mediated delivery; we retreated a previously 24H treated leaf with 100 μM R9-GFP11, and imaged 4 h post re-treatment. […] The limited fluorescence recovery with re-treatment could be due to an induced stress response that decreases the cell wall permeability.
Three days after agroinfiltration, DCIP-expressing leaves were infiltrated with the treatment solutions. Unless otherwise stated, an 8 mm punch was then excised from the infiltrated area and plated, abaxial side up, onto ½ MS pH 5.7 agar plates. The plates were then left to incubate under ambient conditions for 4–5 h before imaging. For cold temperature treatment, after infiltration with ice-cold solutions of R9-GFP11 and disc excision, the leaf discs were plated onto ice-cold agar and immediately transferred to a 4 °C refrigerator for incubation. After incubation, the agar plates with leaf discs were kept on ice until the moment of imaging. For in situ incubation, leaves were simply infiltrated and the plant was returned to the growing chamber for incubation. […]
Excised leaf discs were imaged on a Zeiss LSM880 laser scanning confocal microscope. Images for semi-quantitative analysis were collected using a ×20/1.0NA Plan-apochromat water immersion objective and larger field-of-views were collected using a ×5 objective. […] For quantification experiments, z-stacks were acquired with the imaging depth set to capture the epidermal layer down to the point where mCherry nuclei could no longer be detected. z-stacks from four fields of view were acquired for every treatment condition. Quantitative image analysis and downstream processing was performed using Cell Profiler 3.0. […] Cell Profiler was then used to quantify the number, mCherry intensity, GFP intensity, and red (mCherry)/green (sfGFP) ratio of the projected nuclei.
Data obtained from Cell Profiler was processed using a script written in Python 3.9. Using the Cell Profiler data, GFP positive nuclei were counted using a Python script by setting a threshold defined as a one-tailed 99% confidence interval above the mean green/red ratio in the untreated control or water infiltration control of each experiment. […]

[2] = R9-GFP11 dot blot assay (anti-GFP11) of leaf lysates, tissue stability; format: in vivo, Nicotiana benthamiana; conditions: 500 μM in water infiltrated, in situ, 0, 4, 8, 24 h; 12 mm disc lysed in RIPA, dot blot anti-GFP11, N = 6
Method: We infiltrated leaves with 500 μM R9-GFP11 and left the plants to incubate in situ. A higher concentration of R9-GFP11 was chosen to facilitate detection by immunoblotting. After 0, 4, 8, and 24 h of incubation, a single 12 mm leaf disc was harvested and lysed for each treatment. Two microliters of lysates were then spotted onto nitrocellulose for dot blot analysis[42] using a primary antibody raised against GFP11. […] The reduction at 24 h in the sfGFP signal is indicative of the combined intracellular and extracellular turnover of GFP11 becoming higher than the rate of delivery and complementation. […] We hypothesize that similar dynamics from apoplastic proteases[45] and intracellular degradation are at play in plants.
The third or fourth leaf of 4–5-week-old wild-type N. benthamiana was infiltrated with 500 μM R9-GFP11 in water using a needless syringe. Infiltrations were staggered such that all treatments could be harvested simultaneously for 0, 4, 8, and 24 h time points. Each treatment was performed on a separate plant and the experiment was repeated thrice. A 12 mm leaf disc was excised for each treatment using a leaf punch and flash frozen in liquid nitrogen before grinding and lysis in 20 μL RIPA buffer with 1x plant protease inhibitor cocktail (Sigma-Aldrich: P9599). The lysates were then clarified by centrifugation at 21,000 × g for 30 min. […]

RRRRRRRRRGSGSRDHMVLHEYVNAAGIT [R9-GFP11]
time to disappearance of GFP complementation (DCIP) signal ([1]; 100 μM, intact leaves in situ): ≤ 24 h | percentage of sfGFP positive cells, 4 h post infiltration ([1]; 100 μM, intact leaves in situ, N = 5): relatively high percentage of sfGFP positive cells | percentage of sfGFP-positive cells, 24 h post infiltration ([1]; 100 μM, intact leaves in situ, N = 5, not statistically different from non-treated control): returned nearly to baseline | delivery after re-treatment of a 24 h treated leaf ([1]; re-treated with 100 μM, imaged 4 h post re-treatment): some instances of successful delivery | time until recovered/tissue-localized peptide returns to level of non-treated control (clearance from leaf tissue) [2]: ≤ 24 h
